Results from ChEMBL document CHEMBL1143651, “Design and synthesis of 6-anilinoindazoles as selective inhibitors of c-Jun N-terminal kinase-3” (Bioorg Med Chem Lett, 2005).

Assays:
[1] = target: Mitogen-activated protein kinase 8 (Homo sapiens, UniProt P45983); assay: Inhibitory concentration against c-Jun N-terminal kinase 1
[2] = target: Mitogen-activated protein kinase 10 (Homo sapiens, UniProt P53779); assay: Inhibitory concentration against c-Jun N-terminal kinase 3
[3] = target: Mitogen-activated protein kinase 14 (Homo sapiens, UniProt Q16539); assay: Inhibitory concentration against Mitogen-activated protein kinase p38 alpha
Chain of Mitogen-activated protein kinase 14 (Q16539 whole entry): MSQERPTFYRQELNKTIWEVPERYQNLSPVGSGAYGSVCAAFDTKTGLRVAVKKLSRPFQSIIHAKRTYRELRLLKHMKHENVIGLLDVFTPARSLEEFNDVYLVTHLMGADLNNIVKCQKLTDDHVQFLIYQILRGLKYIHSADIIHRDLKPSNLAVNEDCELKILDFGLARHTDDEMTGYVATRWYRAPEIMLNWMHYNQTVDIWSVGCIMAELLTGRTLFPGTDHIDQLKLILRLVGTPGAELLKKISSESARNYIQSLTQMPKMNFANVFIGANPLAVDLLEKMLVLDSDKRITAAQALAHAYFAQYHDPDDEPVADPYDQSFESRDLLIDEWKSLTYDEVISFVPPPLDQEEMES

Chain of Mitogen-activated protein kinase 10 (P53779 whole entry): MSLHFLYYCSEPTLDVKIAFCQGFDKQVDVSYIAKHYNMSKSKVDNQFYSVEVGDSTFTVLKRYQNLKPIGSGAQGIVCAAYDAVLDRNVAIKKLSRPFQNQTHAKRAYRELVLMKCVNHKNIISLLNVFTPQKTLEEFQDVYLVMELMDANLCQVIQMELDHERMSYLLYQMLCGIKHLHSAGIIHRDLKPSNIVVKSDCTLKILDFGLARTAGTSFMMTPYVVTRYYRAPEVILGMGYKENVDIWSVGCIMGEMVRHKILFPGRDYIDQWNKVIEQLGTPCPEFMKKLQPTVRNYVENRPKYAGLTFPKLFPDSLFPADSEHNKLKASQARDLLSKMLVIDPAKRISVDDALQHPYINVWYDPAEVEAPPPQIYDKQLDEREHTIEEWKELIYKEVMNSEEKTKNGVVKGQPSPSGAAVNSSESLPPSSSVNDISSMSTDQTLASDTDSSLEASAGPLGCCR
Chain of Mitogen-activated protein kinase 8 (P45983 whole entry): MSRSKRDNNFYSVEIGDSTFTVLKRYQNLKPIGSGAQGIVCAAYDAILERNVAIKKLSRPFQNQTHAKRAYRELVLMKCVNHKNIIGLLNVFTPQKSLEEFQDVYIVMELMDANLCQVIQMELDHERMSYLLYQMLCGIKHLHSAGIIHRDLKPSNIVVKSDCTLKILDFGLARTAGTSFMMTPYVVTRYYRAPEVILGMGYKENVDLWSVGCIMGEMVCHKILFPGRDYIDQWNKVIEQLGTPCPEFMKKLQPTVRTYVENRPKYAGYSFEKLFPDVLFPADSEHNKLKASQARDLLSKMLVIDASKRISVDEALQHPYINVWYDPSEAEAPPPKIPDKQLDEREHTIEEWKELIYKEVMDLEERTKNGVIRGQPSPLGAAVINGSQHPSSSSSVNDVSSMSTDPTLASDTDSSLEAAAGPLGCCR

IC50 [1] [nM]	IC50 [2] [nM]	IC50 [3] [nM]	SMILES
1600	202	46	COc1ccccc1Nc1ccc2c(-c3ccccc3)n[nH]c2c1
> 10000	48	30	c1ccc(Nc2ccc3c(-c4ccccc4)n[nH]c3c2)cc1
5350	30	18	Clc1ccccc1Nc1ccc2c(-c3ccccc3)n[nH]c2c1
246	32	13	O=C(O)c1ccc(-c2n[nH]c3cc(Nc4ccccc4Cl)ccc23)cc1
81	3.3	3.2	NC(=O)c1cccc(-c2n[nH]c3cc(Nc4ccccc4Cl)ccc23)c1
228	3.4	3.7	O=C(NCCCN1CCOCC1)c1cccc(-c2n[nH]c3cc(Nc4ccccc4Cl)ccc23)c1
61	5.3	24	O=C(O)c1cccc(-c2n[nH]c3cc(Nc4ccccc4Cl)ccc23)c1
45	1.9	8.7	CN(C)CCNC(=O)c1ccc(-c2n[nH]c3cc(Nc4ccccc4Cl)ccc23)cc1
71	1.4	4.4	O=C(NC1CCNCC1)c1cccc(-c2n[nH]c3cc(Nc4ccccc4Cl)ccc23)c1
698	21	16	CN(C)CCNC(=O)c1cccc(-c2n[nH]c3cc(Nc4ccccc4Cl)ccc23)c1
